Patent US10202371B2, “Oxazolidin-2-one-pyrimidine derivatives and the use thereof as phosphatidylinositol-3-kinase inhibitors” (Novartis AG, priority 2012, dated 2019)

Assays:
PI3Kgamma = PI3Kgamma (Homo sapiens (Human), UniProt P48736); assay: Biochemical assay PI3Kgamma (Adapta TR-FRET); conditions: read-out: PI3Kg/IC50
Text: The TR-FRET Adapta™ Universal Kinase Assay Kit was purchased from Invitrogen
Corporation (Carlsbad/CA, USA) (Cat. No. PV5099). The kit contains the following reagents: Adapta Eu-anti-ADP Antibody (Europium labeled anti-ADP antibody in HEPES buffered saline, Cat. No. PV5097), Alexa Fluor® 647-labeled ADP tracer (Alexa Fluor® 647-labeled ADP tracer in HEPES buffered saline, Cat. No. PV5098), proprietary TR-FRET dilution buffer pH 7.5 (Cat. No. PV3574).
PIK3CD substrate Phosphatidylinositol was obtained from Invitrogen (vesicules consisting of 2 mM PI in 50 mM HEPES pH7.5; Cat. No. PV5371).
Time-Resolved Fluorescence Resonance Energy Transfer (TR-FRET) is a technology based on energy transfer between two adjacent dyes, from an excited electron in one dye (the donor) to an electron of an adjacent dye (the acceptor) through resonance, then released as a photon. This energy transfer is detected by an increase in the fluorescence emission of the acceptor, and a decrease in the fluorescence emission of the donor. TR-FRET assays for protein kinases use a long-lifetime lanthanide Terbium or Europium chelates as the donor species which overcome interference from compound autofluorescence or light scatter from precipitated compounds, by introducing a delay after excitation by a flashlamp excitation source. Results are often expressed as a ratio of the intensities of the acceptor and donor fluorophores. The ratiometric nature of such a value corrects for differences in assay volumes between wells, as well as corrects for quenching effects due to colored compounds. The Adapta™ assay can be divided into two phases: a kinase reaction phase and an ADP detection phase. In the kinase reaction phase, all kinase reaction components are added to the well and the reaction is allowed to incubate for a set period of time specific for each kinase. After the reaction, a detection solution of Eu-labeled anti-ADP antibody, Alexa Fluor® 647-labeled ADP tracer, and EDTA (to stop the kinase reaction) are added to the assay well. ADP formed by the kinase reaction will displace the Alexa Fluor® 647-labeled ADP tracer from the antibody, resulting in a decrease in TR-FRET signal. In the presence of an inhibitor, the amount of ADP formed by the kinase reaction is reduced, and the resulting intact antibody-tracer interaction maintains a high TR-FRET signal. In the Adapta™ assay, the donor (Europium-anti-ADP antibody) is excited at 340 nm and will transfer its energy to the acceptor (Alexa Fluor® 647-labeled ADP tracer). The emission from the Alexa Fluor® 647 can be monitored with a filter centered at 665 nm because it is located between the emission peaks of the donor, which is measured at 615/620 nm.
50 nL of compound dilutions were dispensed onto white 384-well small volume polystyrene plate as described in section 2.2. Then 5 μL of PI3Kg and PI3Kd and lipid substrate (PI or PIP2:PS) followed by 5 μL of ATP (final assay volume 10 μL) are incubated at RT. The standard reaction buffer for the Adapta™ TR-FRET assay contained 10 mM Tris-HCl pH 7.5, 3 mM MgCl2, 50 mM NaCl, 1 mM DTT, 0.05% CHAPS. Reactions were stopped with 5 μL of a mixture of EDTA containing the Eu-labeled anti-ADP antibody and the Alexa Fluor® 647-labeled ADP tracer in TR-FRET dilution buffer (proprietary to IVG). Plates are read 15 to 60 mins later in a Synergy2 reader using an integration time of 0.4 seconds and a delay of 0.05 seconds. […] The standard compound NVP-BGT226 was used as a reference compound and included in all assay plates in the form of 16 dilution points in duplicate.
Data are analyzed using Excel fit software or Graphpad Prism. EC50 values were derived by fitting a sigmoidal dose-response curve to a plot of assay readout over inhibitor concentration. All fits were performed with the program XLfit4 (ID Business Solutions, Guildford, UK). […] All fits were performed with the program XLfit4 (ID Business Solutions, Guildford, UK).

[1] = target: mTOR (TSC1-/- MEFs cells) (Mus musculus (Mouse), UniProt Q9JLN9); assay: Cellular assay mTOR, phospho-T389 S6K1 SureFire in TSC1-/- MEF cells; format: cell-based; conditions: read-out: mTOR TS6K(T389)_TSC1ko/ IC50
Text: A cell based assay (384-well format) was developed for determination of compound effects on cellular mTOR activity in MEF (mouse embryo fibrobrasts) cells derived from mice lacking TSC1 (Tuberosclerosis Complex1) a potent suppressor of mTOR activity. Due to lack of TSC1, mTOR is constitutively activated resulting in permanent phoshorylation of Thr 389 of S6 kinase 1 (S6K1) which is one of the downstream targets of mTOR.
Using a SureFire Kit that enables to determine the phosphorylation of Thr389 on the S6K1 an assay was developed, validated and implemented in the Alpha-Screen format that allows the quantitative determination of phospho-T389 of S6K1 in cell lysates. […] These were in agreement with those values obtained with the biochemical mTOR ATP-binding assay enabling a quantitative comparison of potency of mTOR inhibitors.
TSC1−/− MEFs cells (Kwiatkowski, D. J., Zhang, H., Bandura, J. L., Heiberger, K. M., Glogauer, M., el-Hashemite, N., and Onda, H. (2002) Hum. Mol. Genet. 11, 525-534) were cultured in DMEM high glucose medium supplemented with 10% FBS (Invitrogen), 2 mM Glutamine and 1% (w/v) Penicillin/Streptomycin at 37° C., 5% CO2.
The SureFire kit for determination of P70S6kinase phosphorylation was purchased from Perkin Elmer (p70S6K p-T389, #TGR70S50K) and the assay was performed according to the instructions of the supplier and according to the generic method for SureFire assays. Shortly, 5 μL cell lysate per well were transferred to 384-well white proxy-plates (for luminescent readout) and mixed with […] and […] (final volume: 12 μL). After 3 h incubation in the dark at RT luminescence was read with the Envision Reader (Perkin Elmer). Untreated cells were used as control (high control) and cells treated with 3 μM BEZ235 were used as low control. The assay window between the signals obtained for the high and the low controls were defined as 100% and compound effects were expressed as percent inhibition. IC50 values were calculated from the dose response curves by graphical extrapolation.

Sequence of PI3Kgamma (P48736 whole entry, species assumed): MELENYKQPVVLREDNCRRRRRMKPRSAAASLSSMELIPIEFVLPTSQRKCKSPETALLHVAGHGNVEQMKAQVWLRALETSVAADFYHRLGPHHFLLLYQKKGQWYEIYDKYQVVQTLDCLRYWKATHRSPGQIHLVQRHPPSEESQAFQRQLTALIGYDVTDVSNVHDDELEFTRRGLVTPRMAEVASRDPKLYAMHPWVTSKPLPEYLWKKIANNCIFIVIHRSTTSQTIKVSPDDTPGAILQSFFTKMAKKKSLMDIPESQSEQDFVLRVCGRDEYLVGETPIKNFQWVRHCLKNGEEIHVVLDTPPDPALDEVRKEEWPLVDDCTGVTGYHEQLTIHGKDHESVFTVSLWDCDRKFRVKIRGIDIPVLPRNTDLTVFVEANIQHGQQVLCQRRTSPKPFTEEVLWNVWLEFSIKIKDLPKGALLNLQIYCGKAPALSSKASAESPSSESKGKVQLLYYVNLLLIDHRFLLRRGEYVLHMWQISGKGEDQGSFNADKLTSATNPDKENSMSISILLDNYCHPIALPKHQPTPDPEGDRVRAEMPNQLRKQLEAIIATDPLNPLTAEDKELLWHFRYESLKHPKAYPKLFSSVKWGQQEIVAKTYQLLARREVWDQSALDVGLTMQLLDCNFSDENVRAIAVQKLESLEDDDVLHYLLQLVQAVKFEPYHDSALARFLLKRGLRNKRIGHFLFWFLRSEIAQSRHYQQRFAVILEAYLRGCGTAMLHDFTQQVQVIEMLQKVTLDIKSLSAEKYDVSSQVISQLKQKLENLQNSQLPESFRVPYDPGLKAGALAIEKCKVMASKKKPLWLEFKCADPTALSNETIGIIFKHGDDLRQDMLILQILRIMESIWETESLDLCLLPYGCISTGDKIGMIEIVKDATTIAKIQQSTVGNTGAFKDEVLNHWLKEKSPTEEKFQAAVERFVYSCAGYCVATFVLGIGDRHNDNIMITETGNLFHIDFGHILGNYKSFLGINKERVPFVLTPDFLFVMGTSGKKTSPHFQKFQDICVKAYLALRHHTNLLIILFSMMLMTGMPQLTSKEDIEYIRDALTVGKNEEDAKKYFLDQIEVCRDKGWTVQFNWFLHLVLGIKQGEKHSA

| SMILES | IC50 (PI3Kgamma) | IC50 [1] |
| --- | --- | --- |
| CC[C@H]1[C@H](c2ccc(OC)cc2)OC(=O)N1c1cc(-c2cnc(N)nc2C(F)(F)F)nc(N2CCOCC2)n1 (relative stereo) [Example 2, (4S*,5S*)-3-(2′-amino-2-morpholino-4′-(trifluoromethyl)-[4,5′-bipyrimidin]-6-yl)-4-ethyl-5-(4-methoxyphenyl)oxazolidin-2-one] | 5800 nM |  |
| C[C@H]1[C@H](c2nccs2)OC(=O)N1c1cc(-c2cnc(N)nc2C(F)(F)F)nc(N2CCOCC2)n1 [Example 1, (4S,5R)-3-(2′-Amino-2-morpholin-4-yl-4′-trifluoromethyl-[4,5′]bipyrimidinyl-6-yl)-4-methyl-5-thiazol-2-yl-oxazolidin-2-one] | 92 nM | 243 nM |
| COc1ccc([C@@H]2OC(=O)N(c3cc(-c4cnc(N)nc4C(F)(F)F)nc(N4CCOCC4)n3)[C@H]2CO)cc1 [Example 3, (4S,5S)-3-(2′-Amino-2-morpholino-4′-(trifluoromethyl)-[4,5′-bipyrimidin]-6-yl)-4-(hydroxymethyl)-5-(4-methoxyphenyl)oxazolidin-2-one] | 110 nM | 159 nM |
| C[C@H]1[C@H](c2ccccc2)OC(=O)N1c1cc(-c2cnc(N)nc2C(F)(F)F)nc(N2CCOCC2)n1 [Example 5] | 3500 nM | 371 nM |
| CC[C@H]1[C@H](c2nccs2)OC(=O)N1c1cc(-c2cnc(N)nc2C(F)(F)F)nc(N2CCOCC2)n1 [Example 7] | 3000 nM |  |
| CCC1C(c2cccnc2)OC(=O)N1c1cc(-c2cnc(N)nc2C(F)(F)F)nc(N2CCOCC2)n1 (centres unmarked) [Example 8] | 580 nM |  |
| CC1C(c2cccnc2)OC(=O)N1c1cc(-c2cnc(N)nc2C(F)(F)F)nc(N2CCOCC2)n1 (centres unmarked) [Example 9] | 230 nM |  |
| Nc1ncc(-c2cc(N3C(=O)O[C@@H](c4ccccc4)[C@@H]3CO)nc(N3CCOCC3)n2)c(C(F)(F)F)n1 [Example 10] | 343 nM | 221 nM |
| C[C@H]1[C@@H](c2nccs2)OC(=O)N1c1cc(-c2cnc(N)nc2C(F)(F)F)nc(N2CCOCC2)n1 [Example 11] | 102 nM | 747 nM |
| COCCOc1ccc([C@@H]2OC(=O)N(c3cc(-c4cnc(N)nc4C(F)(F)F)nc(N4CCOCC4)n3)[C@H]2CO)cc1 [Example 12] | 135 nM | 274 nM |
| Nc1ncc(-c2cc(N3C(=O)O[C@@H](c4ccc(OCCO)cc4)[C@@H]3CO)nc(N3CCOCC3)n2)c(C(F)(F)F)n1 [Example 13] | 100 nM | 1070 nM |
| Nc1ncc(-c2cc(N3C(=O)O[C@@H](c4ccc(OCCCO)cc4)[C@@H]3CO)nc(N3CCOCC3)n2)c(C(F)(F)F)n1 [Example 14] | 27 nM | 724 nM |
